Earlier results, collected in patent publication US20220054402A1, “COMPOSITIONS AND METHODS FOR EXTRACTING, STABILIZING, AND MAN[…] DOSAGE FORMS OF PSILOCIN, P[…], ENTHEOGENS, AND MEDICINAL MUSHROOMS AS NANO-D[…] DELIVERY STRUCTURES” (priority 2020, published 2022).

How the values were obtained:
[1] = oral ingestion
[2] = target: serotonin 5-HT2A receptor (Homo sapiens, UniProt P28223); details: psilocin versus psilocybin
[3] = β-glucan embedded in chitin cell walls

Sequence of serotonin 5-HT2A receptor (P28223 whole entry): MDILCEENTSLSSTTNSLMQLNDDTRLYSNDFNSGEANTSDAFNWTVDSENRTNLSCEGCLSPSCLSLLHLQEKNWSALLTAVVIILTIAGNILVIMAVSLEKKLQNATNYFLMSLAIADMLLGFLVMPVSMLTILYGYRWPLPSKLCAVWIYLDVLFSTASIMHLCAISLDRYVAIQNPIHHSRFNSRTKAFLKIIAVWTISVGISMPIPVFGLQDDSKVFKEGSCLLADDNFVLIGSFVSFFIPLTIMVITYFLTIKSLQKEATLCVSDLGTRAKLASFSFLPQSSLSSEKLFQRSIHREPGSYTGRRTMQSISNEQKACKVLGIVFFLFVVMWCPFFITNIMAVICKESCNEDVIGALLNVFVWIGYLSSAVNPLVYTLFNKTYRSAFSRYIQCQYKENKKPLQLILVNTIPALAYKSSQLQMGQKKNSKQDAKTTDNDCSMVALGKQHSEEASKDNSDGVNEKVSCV

For `COc1cc(CCN)cc(OC)c1OC` [Mescaline, 5-trimethoxyphenethylamine], the “reported onset time of effects from ingesting” value [1] is listed as 60 to 180 min.
For `CN(C)CCc1c[nH]c2cccc(O)c12` [Psilocin, 4-hydroxy-NN-dimethyltryptamine], the “affinity for binding the serotonin 5-HT2A receptor relative to psilocybin” value [2] is listed as “more than 200 times”.
For β-glucan, the bioavailability [3] is listed as “less than 5%”.
